In patent US9963461B2, “Phillygenin ibuprofen ester, preparation method therefor, and application thereof” (priority 2014, dated 2018):
Read-outs that look alike come from different tables or passages of the source. Marks after values point to notes of the source that are not given here.

Tests used:
[1] = system: parainfluenza virus; assay: Impact of the drugs on the virus-induced cytopathy (MTT); type: cell-based; settings: parainfluenza virus 100 TCID50, Vero cells, about the maximal non-cytotoxic concentration, 72 hours
[2] = system: Coxsackie virus A16 (CoxA16); assay: as above; type: cell-based; settings: CoxA16 100 TCID50, Vero cells, about the maximal non-cytotoxic concentration, 72 hours
[3] = system: coxsackie virus B3 (CVB3); assay: as above; type: cell-based; settings: CVB3 100 TCID50, Vero cells, about the maximal non-cytotoxic concentration, 72 hours
[4] = system: influenza virus; type: in vivo, Kunming mice; settings: for Lung index (X ± S) / Lung index Inhibitive rate (%): influenza virus infected mice, 5 days
[5] = system: parainfluenza virus; type: in vivo, Kunming mice; settings: for Lung index (X ± S) / Lung index Inhibitive rate (%): parainfluenza virus infected mice, 5 days
[6] = system: influenza virus; type: in vivo, Kunming mice; settings: lung suspensions, influenza virus infected mice, 5 days
[7] = system: parainfluenza virus; type: in vivo, Kunming mice; settings: mouse, in vivo
[8] = system: influenza and parainfluenza virus induced pneumonia; assay: Histomorphology observation of lung; type: in vivo, Kunming mice; settings: high dosage and medium dosage groups, Day 5 after treatment
Method: On Day 5 after treatment, the lungs of mice in each group were picked, and general pathological changes of their viscera are observed by naked eyes and are recorded. The lungs were rinsed with normal saline and moisture thereon is sucked up by using filter paper, a part of the lung was fixed with 10% formaldehyde and embedded with paraffin and sliced, and the lung tissue slices were stained with HE, followed by observation and photographing under a microscope.

[9] = system: sweat gland epithelial cells at the rat toe part; assay: Sweat secretion of rat paw part (tissue morphology observation method); type: in vivo, Wistar rats; settings: for Number of sweat glands of vacuole / Void fraction (%): rat toe part
Excerpt: This test was based on the mechanism that when rat sweat gland is excited, in addition to sweat secretion increase, the morphology of sweat gland epithelial cell is also changed. The number increase and expansion of empty cells of the sweat gland epithelial cells can be seen under the optical microscope. Such enlarged vacuole presents mitochondrial in sweat gland epithelial cells swelling, rupture, fusion and secretory vesicle enlargement under the electron microscope, and through the morphological observation of the sweat gland epithelial cell at the rat paw part, the secretory activity of the sweat gland can be known. In the test, 70 Wistar rats were selected, with equal male and female number, weighing 120-160 g. […] Besides that subcutaneous injection was used for the pilocarpine solution, intragastric administration was used for all the other groups.

[10] = system: rabbit fever induced by typhoid and paratyphoid vaccine; assay: Rabbit fever induced by typhoid and paratyphoid vaccine; type: in vivo, Japanese white rabbits
Method: Japanese male big-ear white rabbits, weighing 1.5-2.0 kg. Before the test, WSC-411P portable digital thermometer was used to measure the normal rectal temperature twice (with certain interval for each time), and the average value was taken as the normal body temperature. Then 48 Japanese big-ear white rabbits with body temperature of 38-39.6° C. were selected and randomly divided into 8 groups by weight, namely: the blank control (normal saline) group, the model control (0.5% carboxymethylcellulose) group, the ibuprofen group (300 mg/kg), the phillygenin group (10 mg/kg), the 1.25, 2.5, and 5 mg/kg phillygenin ibuprofen ester groups and the positive drug paracetamol (50 mg/kg) group. The rabbits were fixed in a fixator. The blank control group was intravenously injected with normal saline of 1 ml/kg via the ear margin; The model control group and the drug groups were intravenously injected with typhoid and paratyphoid vaccines of 0.8 ml/kg via the ear margin. When the body temperature rise of the rabbits was greater than 1° C. (requiring about 1-1.5 h, which was restricted to 1 h in this test), the blank control group and the model group were administered intragastrically with 0.5% carboxymethycellulose of 1 ml/kg, and the drug groups were administered intragastrically with phillygenin ibuprofen ester and paracetamol. […]

[11] = system: rat toe swelling induced by carrageenan; assay: Rat toe swelling induced by carrageenan; type: in vivo, Wistar rats
Method: The test groups were administered by sublingual intravenous injection. Before the test, capillary magnification measurement method was used to measure the normal volume of the right hind foot of the rats in each group. To avoid errors, the measurement location was fixed and the operation was made by one person both before and after the administration. The average value of the two measurements was taken as the normal volume of the right hind foot of the rats before administration. […] The difference between the groups was compared by inter-group t test processing through the difference percentage (swelling ratio) of the paw volume before and after the induced rat inflammation.

[12] = Solubility; type: physicochemical
[13] = system: Vero cell; assay: Cytotoxicity test on Vero cell (MTT); settings: 72 hours
[14] = 1.25 mg/kg, time after administration (min) 30
[15] = 1.25 mg/kg, time after administration (min) 60
[16] = 1.25 mg/kg, time after administration (min) 90
[17] = 1.25 mg/kg, time after administration (min) 120
[18] = 1.25 mg/kg, time after administration (min) 180
[19] = 2.5 mg/kg, time after administration (min) 30
[20] = 2.5 mg/kg, time after administration (min) 60
[21] = 2.5 mg/kg, time after administration (min) 90
[22] = 2.5 mg/kg, time after administration (min) 120
[23] = 2.5 mg/kg, time after administration (min) 180
[24] = 5.0 mg/kg, time after administration (min) 30
[25] = 5.0 mg/kg, time after administration (min) 90
[26] = 5.0 mg/kg, time after administration (min) 120
[27] = 5.0 mg/kg, time after administration (min) 180

COc1ccc([C@H]2OCC3C2CO[C@H]3c2ccc(OC)c(OC(=O)C(C)c3ccc(CC(C)C)cc3)c2)cc1OC (stereo partly drawn) [Phillygenin ibuprofen ester, phillygenin ibuprofen ester]
antiviral effective rate (ER %) [1]: 100.00**^# %
antiviral effective rate (ER %) [2]: 75.89**^## %
antiviral effective rate (ER %) [3]: 75.83**^## %
Lung index (X ± S) ([4]; 4.0 mg/kg/d intragastric): 1.222 ± 0.040
Lung index Inhibitive rate (%) ([4]; 4.0 mg/kg/d intragastric): 17.90%
Lung index (X ± S) ([4]; 8.0 mg/kg/d intragastric): 1.190 ± 0.061
Lung index Inhibitive rate (%) ([4]; 8.0 mg/kg/d intragastric): 20.05%
Lung index (X ± S) ([4]; 13.0 mg/kg/d intragastric): 1.147 ± 0.048
Lung index Inhibitive rate (%) ([4]; 13.0 mg/kg/d intragastric): 22.94%
effect on average lung index vs infection model group ([4]; mouse, in vivo): certain protective effect
effect on average lung index vs infection model group ([5]; mouse, in vivo): certain protective effect
Lung index (X ± S) ([5]; 3.25 mg/kg/d intragastric): 1.320 ± 0.053
Lung index Inhibitive rate (%) ([5]; 3.25 mg/kg/d intragastric): 17.01%
Lung index (X ± S) ([5]; 13.0 mg/kg/d intragastric): 1.237 ± 0.070
Lung index Inhibitive rate (%) ([5]; 13.0 mg/kg/d intragastric): 22.25%
Hemagglutination titer (InX) ([6]; 3.25 mg/kg/d): 22.01 ± 1.420
Hemagglutination titer Inhibitive rate (%) ([6]; 3.25 mg/kg/d): 32.07%
Hemagglutination titer (InX) ([6]; 13.0 mg/kg/d): 19.32 ± 0.624
Hemagglutination titer Inhibitive rate (%) ([6]; 13.0 mg/kg/d): 40.36%
Hemagglutination titer (InX) ([7]; 3.25 mg/kg/day): 21.55 ± 0.857
Hemagglutination titer Inhibitive rate (%) ([7]; 3.25 mg/kg/day): 34.90%
Hemagglutination titer (InX) ([7]; 13 mg/kg/day): 19.75 ± 0.902
Hemagglutination titer Inhibitive rate (%) ([7]; 13 mg/kg/day): 40.34%
lung lesions of mice (lung histology, HE) [8]: significantly alleviated
effect on the sweat secretion of the rat toe part vs control group ([9]; 5 and 10 mg/kg, p<0.01 or p<0.001): obvious promoting effect
Number of sweat glands of vacuole ([9]; 2.5 mg/kg intragastric): 20
Void fraction (%) ([9]; 2.5 mg/kg intragastric): 8.47%
Number of sweat glands of vacuole ([9]; 5.0 mg/kg intragastric): 42
Void fraction (%) ([9]; 5.0 mg/kg intragastric): 32.11***; ^# %
Number of sweat glands of vacuole ([9]; 10.0 mg/kg intragastric): 75
Void fraction (%) ([9]; 10.0 mg/kg intragastric): 35.21***; ^## %
Body temperature (° C.) [10, 14]: 40.68 ± 0.41 °C
antipyretic percentage (%) [10, 14]: 0.98 ± 0.11%
Body temperature (° C.) [10, 15]: 40.61 ± 0.38 °C
antipyretic percentage (%) [10, 15]: −1.15 ± 0.15 %
Body temperature (° C.) [10, 16]: 40.50 ± 0.39 °C
antipyretic percentage (%) [10, 16]: −1.40 ± 0.20 %
Body temperature (° C.) [10, 17]: 40.29 ± 0.42 °C
antipyretic percentage (%) [10, 17]: −1.92 ± 0.31 %
Body temperature (° C.) [10, 18]: 40.10 ± 0.35 °C
antipyretic percentage (%) [10, 18]: −2.39 ± 0.43 %
Body temperature (° C.) [10, 19]: 40.83 ± 0.39 °C
antipyretic percentage (%) [10, 19]: −1.10 ± 0.00 %
Body temperature (° C.) [10, 20]: 40.37 ± 0.33 °C
antipyretic percentage (%) [10, 20]: −2.20 ± 0.05**^Δ▴▴ %
Body temperature (° C.) [10, 21]: 40.12 ± 0.21 °C
antipyretic percentage (%) [10, 21]: −2.81 ± 0.12 %
Body temperature (° C.) [10, 22]: 40.02 ± 0.20 °C
antipyretic percentage (%) [10, 22]: −3.06 ± 0.43 %
Body temperature (° C.) [10, 23]: 39.90 ± 0.25 °C
antipyretic percentage (%) [10, 23]: −3.35 ± 0.29 %
antipyretic percentage (%) ([10]; 5.0 mg/kg, 60 min after administration): −2.61 ± 0.10**^ΔΔ▴▴ %
Body temperature (° C.) [10, 24]: 40.57 ± 0.28 °C
antipyretic percentage (%) [10, 24]: −1.30 ± 0.11 %
Body temperature (° C.) ([10]; 5.0 mg/kg, time after administration (min) 60): 40.04 ± 0.20 °C
Body temperature (° C.) [10, 25]: 39.88 ± 0.23 °C
antipyretic percentage (%) [10, 25]: −2.98 ± 0.22 %
Body temperature (° C.) [10, 26]: 39.65 ± 0.20 °C
antipyretic percentage (%) [10, 26]: −3.54 ± 0.18***^Δ▴▴▴ %
Body temperature (° C.) [10, 27]: 39.42 ± 0.25 °C
antipyretic percentage (%) [10, 27]: −4.10 ± 0.17***^Δ▴▴ %
effect on rabbit fever induced by the typhoid and paratyphoid vaccines vs model group ([10]; high and medium dose groups (5, 10 mg/kg) 30-240 min, low dose group (5 mg/kg) 60-240 min after administration): significant antipyretic effect
Swelling ratio (%) ([11]; 2.5 mg/kg sublingual intravenous injection, 30 min): 0.215 ± 0.120%
Swelling ratio (%) ([11]; 2.5 mg/kg sublingual intravenous injection, 60 min): 0.293 ± 1.117%
Swelling ratio (%) ([11]; 2.5 mg/kg sublingual intravenous injection, 120 min): 0.450 ± 0.254%
Swelling ratio (%) ([11]; 2.5 mg/kg sublingual intravenous injection, 180 min): 0.800 ± 0.339%
Swelling ratio (%) ([11]; 2.5 mg/kg sublingual intravenous injection, 240 min): 0.865 ± 0.303%
Swelling ratio (%) ([11]; 2.5 mg/kg sublingual intravenous injection, 300 min): 1.045 ± 0.308%
Swelling ratio (%) ([11]; 2.5 mg/kg sublingual intravenous injection, 360 min): 0.930 ± 0.200%
Swelling ratio (%) ([11]; 5.0 mg/kg sublingual intravenous injection, 30 min): 0.065 ± 0.112 %
Swelling ratio (%) ([11]; 5.0 mg/kg sublingual intravenous injection, 60 min): 0.127 ± 0.178 %
Swelling ratio (%) ([11]; 5.0 mg/kg sublingual intravenous injection, 120 min): 0.209 ± 0.438 %
Swelling ratio (%) ([11]; 5.0 mg/kg sublingual intravenous injection, 180 min): 0.338 ± 0.524 %
Swelling ratio (%) ([11]; 5.0 mg/kg sublingual intravenous injection, 240 min): 0.461 ± 0.402**^Δ %
Swelling ratio (%) ([11]; 5.0 mg/kg sublingual intravenous injection, 300 min): 0.688 ± 0.503%
Swelling ratio (%) ([11]; 5.0 mg/kg sublingual intravenous injection, 360 min): 0.675 ± 0.578%
Swelling ratio (%) ([11]; 10.0 mg/kg sublingual intravenous injection, 30 min): 0.025 ± 0.210***^Δ▴▴▴ %
Swelling ratio (%) ([11]; 10.0 mg/kg sublingual intravenous injection, 60 min): 0.079 ± 0.156**^Δ▴▴ %
Swelling ratio (%) ([11]; 10.0 mg/kg sublingual intravenous injection, 120 min): 0.140 ± 0.156 %
Swelling ratio (%) ([11]; 10.0 mg/kg sublingual intravenous injection, 180 min): 0.191 ± 0.216 %
Swelling ratio (%) ([11]; 10.0 mg/kg sublingual intravenous injection, 240 min): 0.255 ± 0.294 %
Swelling ratio (%) ([11]; 10.0 mg/kg sublingual intravenous injection, 300 min): 0.310 ± 0.226***^Δ▴▴ %
Swelling ratio (%) ([11]; 10.0 mg/kg sublingual intravenous injection, 360 min): 0.405 ± 0.231 %
effect on the rat paw swelling induced by carrageenin vs blank control group ([11]; high dose group, within 30 min to 360 min after administration): significant inhibitive effects
solubility [12]: soluble in methanol; chloroform, and dichloromethane
Median toxic concentration (TC50) [13]: 485 µg/mL
maximal non-toxic concentration (TC0) [13]: 0.109 g/L
